Converted amounts (≈) assume the structure as drawn.
What was measured:
Type in all cases: cell-based
[1] = tested on: Morcaxella catarrhalis ATCC25238; test: MIC, agar dilution method, Mueller-Hinton agar; conditions: 35° C., 24 hours
Protocol: (§1) The following in vitro results were obtained based on an agar dilution method except for C. pneumoniae. The activity is presented as the minimum inhibitory concentration (MIC).
(§2) S. aureus and M. catarrhalis were tested on Mueller-Hinton agar, using an approximate inoculum of 1×10^4 cfu/spot an incubation temperature of 35° C. for 24 hours. The MIC was defined as the lowest concentration at which no visible bacterial growth was observed.

[2] = tested on: Staphylococcus aureus CR (chloramphenicol resistant); test: MIC, agar dilution method, Mueller-Hinton agar; conditions: 35° C., 24 hours
Protocol: as §1, §2

[3] = tested on: Staphylococcus aureus Smith; test: MIC, agar dilution method, Mueller-Hinton agar; conditions: 35° C., 24 hours
Protocol: as §1, §2

[4] = tested on: Staphylococcus aureus MR (methicillin resistant); test: MIC, agar dilution method, Mueller-Hinton agar; conditions: 35° C., 24 hours
Protocol: as §1, §2

[5] = tested on: Enterococcus faecium VRQR (vancomycin resistant, quinolone resistant); test: MIC, agar dilution method, Mueller-Hinton agar with 5% defibrinated horse blood; conditions: 35° C., 5 % CO2, 24 hours
Protocol: as §1
as §2, with “Streptococci” for “S. aureus”, “enterococci” for “M. catarrhalis”, “agar supplemented with 5% defibrinated horse blood,” for “agar,”, “C. in an atmosphere of 5 % CO2” for “C.”

[6] = tested on: Streptococcus pneumoniae PRQR (penicillin resistant, quinolone resistant); test: as above; conditions: 35° C., 5 % CO2, 24 hours
Protocol: as §1
as §2, with “Streptococci” for “S. aureus”, “enterococci” for “M. catarrhalis”, “agar supplemented with 5% defibrinated horse blood,” for “agar,”, “C. in an atmosphere of 5 % CO2” for “C.”

[7] = tested on: Streptococcus pyogenes IID692; test: as above; conditions: 35° C., 5 % CO2, 24 hours
Protocol: as §1
as §2, with “Streptococci” for “S. aureus”, “enterococci” for “M. catarrhalis”, “agar supplemented with 5% defibrinated horse blood,” for “agar,”, “C. in an atmosphere of 5 % CO2” for “C.”

[8] = tested on: Streptococcus pneumoniae IID553; test: as above; conditions: 35° C., 5 % CO2, 24 hours
Protocol: as §1
as §2, with “Streptococci” for “S. aureus”, “enterococci” for “M. catarrhalis”, “agar supplemented with 5% defibrinated horse blood,” for “agar,”, “C. in an atmosphere of 5 % CO2” for “C.”

Compound | MIC [1] [µg/mL] | MIC [2] [µg/mL] | MIC [3] [µg/mL] | MIC [4] [µg/mL] | MIC [5] [µg/mL] | MIC [6] [µg/mL] | MIC [7] [µg/mL] | MIC [8] [µg/mL]
CC(=O)NC[C@H]1CN(c2ccc(-c3ccc([C@@]4(C#N)[C@@H]5CNC[C@@H]54)nc3)cc2)C(=O)O1.Cl [Example 13, N-[5(S)-3-[4-[2-[(1α,5α,6β)-6-Cyano-3-azabicyclo[3.1.0]hexan-6-yl]pyridin-5-yl]phenyl]-2-oxooxazolidin-5-ylmethyl]acetamide Hydrochloride] | 1 | 0.5 | 0.125 | 0.125 | 0.125 | 0.06 | 0.06 | 0.125
CC(=O)NC[C@H]1CN(c2ccc(-c3ccc([C@@]4(C#N)[C@@H]5CNC[C@@H]54)c(F)c3)c(F)c2)C(=O)O1.Cl [Example 15, N-[5(S)-3-[4-[4-[(1α,5α,6β)-6-Cyano-3-azabicyclo[3.1.0]hexan-6-yl]-3-fluorophenyl]-3-fluorophenyl]-2-oxooxazolidin-5-ylmethyl]acetamide Hydrochloride] | 4 | 1 | 0.25 | 0.25 | 0.5 | 0.25 | 0.25 | 0.25
N#C[C@]1(c2ccc(-c3ccc(N4C[C@H](Cn5ccnn5)OC4=O)cc3F)cn2)[C@@H]2COC[C@@H]21 [Example 23, 1-[5(R)-3-[4-[2-[(1α,5α,6β)-6-Cyano-3-oxabicyclo[3.1.0]hexan-6-yl]pyridin-5-yl]-3-fluorophenyl]-2-oxooxazolidin-5-ylmethyl]-1,2,3-triazole] | 0.5 (≈ 1.12 µM) | 0.5 (≈ 1.12 µM) | 0.06 (≈ 0.134 µM) | 0.06 (≈ 0.134 µM) | 0.06 (≈ 0.134 µM) | 0.06 (≈ 0.134 µM) | 0.06 (≈ 0.134 µM) | 0.06 (≈ 0.134 µM)
CC(=O)NC[C@H]1CN(c2ccc(N3CCOCC3)c(F)c2)C(=O)O1 [Linezolid, reference compound] | 4 (≈ 11.9 µM) | – | – | – | – | – | – | –

Reference: patent publication US7582659B2, “Cyclopropyl group substituted oxazolidinone antibiotics and derivatives thereof” (Merck & Co., Inc., priority 2003, dated 2009)
